Experimental data published in patent US9512139B2, “Conformationally constrained, fully synthetic macrocyclic compounds” (POLYPHOR AG, priority 2009, dated 2016).

Legend:
[1] = Metabolic stability assay, human microsomes; type: in vitro ADME; conditions: human, microsomes; for half-life at 10 µM: both sexes; for Metabolic Stability 60 min hum [% remain.] / Metabolic Stability T½ [min] hum: both, 10 µM; for Metabolic Stability 60 min hum [% remain.]: 1 h
in vitro [2] = type: in vitro ADME, mouse; conditions: both, CD-1, mouse, plasma, 10 µM; for Plasma Stability 240 min mouse [% remain.]: 4 h
in vitro [3] = type: in vitro ADME, human; conditions: human, plasma, 10 µM; for Plasma Stability 240 min hum [% remain.]: 4 h
Description: Example compounds were dissolved in DMSO/H2O 90:10 to a final concentration of 10 mM for plasma stability determination and metabolic stability determination.
Human plasma (3-5 donors, Blutspendedienst SRK, Basel) and CD-1 mouse plasma (mixed gender pool >50 animals, Innovative Research, CA, USA) are both sodium citrate stabilized. The assay is performed in triplicates at 10 μM compound concentration and 37° C. Samples are taken at 0, 15, 60, and 240 minutes and stopped by precipitation with 2 volumes of acetonitrile. The supernatant is collected, evaporated and reconstituted in a 5% acetonitrile solution to be analyzed by HPLC/MS/MS. The resulting peak area counts are expressed in percent of the 0 value and used to determine the endpoint stability in % and the half life in minutes. In order to monitor assay integrity the degradation of propantheline is assayed with every experimental set.

[4] = Metabolic stability assay, CD-1 mouse microsomes; type: in vitro ADME; conditions: CD-1, mouse, microsomes; for Metabolic Stability T½ [min] mouse / Metabolic Stability 60 min mouse [% remain.]: both, 10 µM; for Metabolic Stability 60 min mouse [% remain.]: 1 h
Motilin Receptor = biological target: T1, Motilin Receptor (Homo sapiens, UniProt O43193); assay: Ca2+ assay (FLIPR) for the GPCR motilin receptor, agonist and antagonist mode; type: cell-based; conditions: antagonist mode
T1 construct: host or cells: Ca2+ optimized hematopoietic cell lines (rat)
Description: Ca^2+ Assays for the GPCRs Motilin Receptor, Prostaglandin F (FP) Receptor, 5-hydroxytryptamine 2B (5-HT2B) Receptor, and Purinoreceptor P2Y1
Assays were performed using on a FLIPR^TETRA fluorometric imaging plate reader (Molecular Devices) with ScreenWorks Version 2 (Molecular Devices) as device operating and data analysis software.
Dose dependent agonist and antagonist activities were determined. Percentage activation and percentage inhibition values were determined.
Percentage activation was determined upon initial addition of the sample compounds followed by 10 minutes incubation at 25° C. Following compound incubation, reference agonists were added at EC80 to determine percentage inhibition.
Reference agonists were purchased from reputable commercial vendors and prepared according to each ligand's specifications. All handling of ligands were done to ensure proper control throughout the experiments.
Example compounds were weighed on a Microbalance (Mettler MX5) and dissolved in 100% DMSO to a final concentration of 2.5 mM and subsequently diluted into the assay buffer.
The Assay buffer was a supplemented HBSS (Hank's Balanced Salt Solution). HBSS was supplemented with 20 mM HEPES (4-(2-hydroxyethyl)-piperazin-1-ethansulfonic acid) and 2.5 mM Probenecid (Sigma P8761).
GPCR assays were performed using Ca^2+ optimized hematopoietic cell lines (rat) with cultures never exceeding 90% confluency. […] After seeding, the assay plates were incubated for forty-five (45) minutes at room temperature. After room temperature incubation, the assay plates were incubated at 37° C. 5% CO2 for 24 hours prior to assaying.
All GPCR assays were performed using Fluo-8 Ca^2+ dye. Ca^2+ dye was prepared at 1× dye concentration in GPCR assay buffer. After 24 hours of incubation, cells were washed with GPCR assay buffer, and then Ca^2+-dye (100 μL/well) was added.
The plates were incubated for 90 minutes at 30° C. 5% CO2 prior to FLIPR assay.
Compound plates were prepared to add 50 μL/well during the agonist assay mode. During the FLIPR assay, 50 μL/well from the compound plate was diluted 3-fold into the existing 100 μL/well from the dye loading step. Therefore all compounds were prepared as 3× the final concentration desired in the assay.
After completion of the first single addition assay run, assay plate was removed from the FLIPR Tetra and placed at 25° C. for seven (7) minutes before antagonist assay.
Using the EC80 values determined during the agonist assay, all pre-incubated sample compound and reference antagonist (if applicable) wells were stimulated at the EC80 of the reference agonist. As reference ligands for the first three assays their obvious natural ligands motilin, prostaglandin F2α, and serotonin (5-HT, 5-Hydroxytryptamine) were used; and for the P2Y1 assay 2MeSATP (2-methyl-thio-adeno-sine 5′-triphosphate, i.e. (2R,3S,4R)-5-(6-amino-2-methylsulfanyl-purin-9-yl)-3,4-dihydroxy-tetrahydrofuran-2-yl]methyl (hydroxy-phosphonooxy-phosphoryl)hydrogen phosphate) was applied.
After the addition of the reference agonist fluorescence was monitored for 180 sec using FLIPR Tetra.
Data Analysis and Results:
From the FLIPR data, with negative control correction enabled, the maximum statistic for each well was exported and percentage activation relative to Emax control was calculated.
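For Plasma Stability 240 min mouse [% remain.] in this document: sodium citrate stabilized mouse plasma, parent compound quantified by HPLC/MS/MS relative to its peak area at time zero, run in triplicate.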
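For Plasma Stability T½ [min] mouse in this document: sodium citrate stabilized mouse plasma, parent compound quantified by HPLC/MS/MS relative to its peak area at time zero, run in triplicate.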

T1 sequence (O43193 whole entry, species assumed): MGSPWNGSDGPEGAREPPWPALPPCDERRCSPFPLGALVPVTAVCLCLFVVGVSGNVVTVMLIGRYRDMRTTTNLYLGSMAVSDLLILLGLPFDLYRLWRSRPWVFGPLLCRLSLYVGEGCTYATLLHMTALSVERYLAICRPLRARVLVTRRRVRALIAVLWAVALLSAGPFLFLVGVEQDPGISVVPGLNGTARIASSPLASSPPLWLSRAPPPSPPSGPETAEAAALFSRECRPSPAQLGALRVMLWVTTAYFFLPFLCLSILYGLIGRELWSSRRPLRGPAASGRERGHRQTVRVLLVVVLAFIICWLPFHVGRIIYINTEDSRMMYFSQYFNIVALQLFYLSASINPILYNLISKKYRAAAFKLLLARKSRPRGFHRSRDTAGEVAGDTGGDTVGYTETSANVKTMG

SMILES	half-life at 10 µM [1]	Metabolic Stability 60 min hum [% remain.] [1]	Plasma Stability T½ [min] mouse (in vitro [2])	Plasma Stability 240 min mouse [% remain.] (in vitro [2])	Plasma Stability T½ [min] hum (in vitro [3])	Plasma Stability 240 min hum [% remain.] (in vitro [3])	Metabolic Stability T½ [min] mouse [4]	Metabolic Stability 60 min mouse [% remain.] [4]	IC50 (Motilin Receptor)	inhibition at 10 µM (Motilin Receptor; at 10 μM)	Metabolic Stability T½ [min] hum [1]	half-life at 10 µM ([4]; both sexes)	Antagonist activity [% Inhibition at 10 μM] (Motilin Receptor; at 10 μM)
CN(C)CCNC(=O)[C@@H]1CCC(=O)N(C)CC(=O)N2C[C@@H](NC(=O)Cc3cccc4ccccc34)C[C@H]2COc2ccc(F)cc2C(=O)N1C [Ex. 49, (2S,11S,19aS}-N-[2-(dimethylamino)ethyl]-15-fluoro-7,12-dimethyl-2-{[2-(1-naphthyl)acetyl]amino}-5,8,13-trioxo-2,3,6,7,8,9,10,11,12,13,19,19a-dodecahydro-1H,5H-pyrrolo[2,1-c] [1,4,7,12] benzoxatriazacyclopentadecine-11-carboxamide]	0.4 h	10 % remain.	> 240 min	96 % remain.	> 240 min	83 % remain.	> 60 min	83 % remain.	0.16 µM	98%	–	–	–
CN(C)CCNC(=O)[C@@H]1CCC(=O)N(C)CC(=O)N2C[C@@H](NC(=O)Cc3c[nH]c4ccccc34)C[C@H]2COc2ccc(F)cc2C(=O)N1C [Ex. 11, (2S,11S,19aS)-N-[2-(dimethylamino)ethyl]-15-fluoro-2-{[2-(1H-indol-3-yl)acetyl]amino}-7,12-dimethyl-5,8,13-trioxo-2,3,6,7,8,9,10,11,12,13, 19,19a-dodecahydro-1H,5H-pyrrolo[2,1-c] [1,4,7,12]benzoxatriazacyclopentadecine-11-carboxamide]	–	74 % remain.	> 240 min	100 % remain.	> 240 min	100 % remain.	> 60 min	77 % remain.	0.78 µM	79%	> 60 min	–	–
CN1CC(=O)N2C[C@@H](NC(=O)Cc3cccc4ccccc34)C[C@H]2COc2ccc(F)cc2C(=O)N(C)[C@H](C(=O)NCCN)CCC1=O [Ex. 483, (2S,11S,19aS)-N-(2-aminoethyl)-15-fluoro-7,12-dimethyl-2-{[2-(1-naphthyl)acetyl]amino)-5,8,13-trioxo-2,3,6,7,8,9,10,11,12, 13,19,19a-dodecahydro-1H,5H-pyrrolo [2,1-c] [1,4,7,12]benzoxatriazacyclopentadecine-11-carboxamide]	–	55 % remain.	> 240 min	100 % remain.	> 240 min	100 % remain.	> 60 min	85 % remain.	0.023 µM	100%	> 60 min	–	–
CN1CC(=O)N2CC(NC(=O)Cc3cccc4ccccc34)CC2COc2ccc(F)cc2C(=O)N(C)C(C(=O)NCCNc2ccccn2)CCC1=O [Ex. 485, [2S,11S,19aS)-15-fluoro-7,12-dimethyl-2-{[2-(1-naphthyl)acetyl]amino}-5,8,13-trioxo-N-[2-(2-pyridinylamino)ethyl]-2,3,6,7,8,9,10,11,12,13,19,19a-dodecahydro-1H,5H-pyrrolo[2,1-c] [1,4,7,12]benzoxatriaza-cyclopentadecine-11-carboxamide]	0.233 h	8 % remain.	> 240 min	99 % remain.	> 240 min	100 % remain.	–	11 % remain.	0.28 µM	93%	–	0.283 h	–
CC(=O)NCCNC(=O)[C@@H]1CCC(=O)N(C)CC(=O)N2C[C@@H](NC(=O)Cc3cccc4ccccc34)C[C@H]2COc2ccc(F)cc2C(=O)N1C [Ex. 487, (2S,11S,19aS)-N-[2-(acetylamino)ethyl]-15-fluoro-7,12-dimethyl-2-{[2-(1-naphthyl)acetyl]amino}-5,8,13-trioxo-2,3,6,7,8,9,10,11,12,13,19,19a-dodecahydro-1H,5H-pyrrolo[2,1-c] [1,4,7,12]benzoxatri-azacyclopentadecine-11-carboxamide]	–	–	–	–	–	–	–	–	–	47%	–	–	–
CN(C)CCNC(=O)[C@@H]1CCC(=O)N(C)CC(=O)N2C[C@@H](NCCc3cccc4ccccc34)C[C@H]2COc2ccc(F)cc2C(=O)N1C [Ex. 486, (2S,11S,19aS)-N-[2-(dimethylamino)ethyl]-15-fluoro-7,12-dimethyl-2-{[2-(1-naphthyl)ethyl]amino}-5,8,13-trioxo-2,3,6,7,8,9,10,11,12,13,19,19a-dodecahydro-1H,5H-pyrrolo[2,1-c] [1,4,7,12]benzoxatri-azacyclopentadecine-11-carboxamide]	0.383 h	13 % remain.	> 240 min	98 % remain.	> 240 min	100 % remain.	> 60 min	100 % remain.	0.18 µM	93%	–	–	–
CN(C)CCNC(=O)[C@@H]1CCC(=O)N(C)CC(=O)N2C[C@@H](NC(=O)Cc3ccc4ccccc4c3)C[C@H]2COc2ccc(F)cc2C(=O)N1C [Ex. 48, (2S,11S,19aS)-N-[2-(dimethylamino)ethyl]-15-fluoro-7,12-dimethyl-2-{[2-(2-naphthyl)acetyl]amino}-5,8,13-trioxo-2,3,6,7,8,9,10,11,12,13,19,19a-dodecahydro-1H,5H-pyrrolo[2,1-c] [1,4,7,12] benzoxatriazacyclopentadecine-11-carboxamide]	–	–	–	–	–	–	–	–	–	29%	–	–	–
COc1cccc(CC(=O)N[C@H]2C[C@H]3COc4ccc(F)cc4C(=O)N(C)[C@H](C(=O)NCCN(C)C)CCC(=O)N(C)CC(=O)N3C2)c1 [Ex. 496, (2S,11S,19aS)-N-[2-(dimethylamino)ethyl]-15-fluoro-2-{[2-{3-methoxyphenyl)acetyl]amino}-7,12-dimethyl-5,8,13-trioxo-2,3,6,7,8,9,10,11,12,13,19,19a-dodecahydro-1H,5H-pyrrolo[2,1-c] [1,4,7,12]benzoxatriazacyclopentadecine-11-carboxamide]	–	–	–	–	–	–	–	–	–	31%	–	–	–
CN1CC(=O)N2C[C@@H](NC(=O)Cc3cccc4ccccc34)C[C@H]2COc2ccc(F)cc2C(=O)N(C)[C@H](C(=O)NCc2cccnc2)CCC1=O [Ex. 497, (2S,11S,19aS)-15-fluoro-7,12-dimethyl-2-{[2-(1-naphthyl)acetyl]amino}-5,8,13-trioxo-N-(3-pyridinylmethyl)-2,3,6,7,8,9, 10,11,12,13,19,19a-dodecahydro-1H,5H-pyrrolo[2,1-c][1,4,7,12]benzoxatriazacyclo-pentadecine-11-carboxamide]	–	–	–	–	–	–	–	–	–	–	–	–	24%
CN(C)CCNC(=O)[C@@H]1CCC(=O)N(C)CC(=O)N2C[C@@H](NC(=O)Cc3cccc(C(F)(F)F)c3)C[C@H]2COc2ccc(F)cc2C(=O)N1C [Ex. 495, (2S,11S,19aS)-N-[2-(dimethylamino)ethyl]-15-fluoro-7,12-dimethyl-5,8,13-trioxo-2-({2-[3-(trifluoromethyl)phenyl]acetyl}amino)-2,3,6,7,8,9,10,11,12,13,19,19a-dodecahydro-1H,5H-pyrrolo[2,1-c] [1,4,7,12] benzoxatriazacyclopentadecine-11-carboxamide]	–	–	–	–	–	–	–	–	–	26%	–	–	–
